15 compounds from patent publication US8232287B2, “Pyrimidyl indoline compound” (Daiichi Sankyo Company, Limited, priority 2007, dated 2012) can be followed below.

The test system of this assay is Mice C57/BL6J. As to the kind of experiment: Oral glucose tolerance test (oGTT) using mice. It is filed as in vivo. Conditions: Mus musculus, 2 h; blood glucose AUC vs vehicle-administered group; fasted male C57/BL6J mice; 1 mg/ml suspension in 0.5% methylcellulose given orally 30 min before oral glucose load; plasma glucose at pre, 15, 30, 60, 120 min; read-out: Rate of decrease in AUC (%). The procedure:
Oral Glucose Tolerance Test (oGTT) Using Mice
2.0 to 8.0 mg of a test compound was weighed and then placed in an agate mortar. While the compound was pulverized, a 0.5% methylcellulose solution was added thereto to prepare a 1 mg/ml suspension. Mice C57/BL6J (6- to 8-week-old male) were purchased from Charles River Laboratories Japan Inc. and raised in a cage until they became 9- to 13-week-old. The mice were fasted after 5 to 6 p.m. of the day before the test. On the test day, blood was collected from the tail vein, and the preceding prepared suspension was orally administered to each of the mice. Thirty minutes after administration, blood was further collected from the tail vein (plasma glucose level in this blood was used as a pre-value), and a 20 to 30% glucose solution was then orally administered thereto at a dose of 10 ml/kg for glucose load. After the glucose load, blood was further collected from the tail vein at time points 15, 30, 60, and 120 minutes. The collected blood was centrifuged to separate plasma. The pre-value and plasma glucose levels at 15, 30, 60, and 120 minutes after the glucose load were measured using Glucoroder GXT (Shino-Test Corp.), and the rate of decrease in blood glucose AUC (%) from a vehicle-administered group was calculated. To this vehicle-administered group, a 0.5% methylcellulose solution was administered instead of the suspension of the compound.
As to `CC(C)OC(=O)N1CC[C@H](Oc2cc(N3CCc4cc(S(C)(=O)=O)ccc43)ncn2)[C@H](F)C1` (relative stereo) [Example 117, isopropyl cis-3-fluoro-4-[6-(5-methanesulfonyl-2,3-dihydro-indol-1-yl)-pyrimidin-4-yloxy]-piperidine-1-carboxylate], the inhibition in vivo at 1000 µg/mL was determined as 27%.
Under `CC(C)(C)OC(=O)N1CCC(Oc2cc(N3CCc4cc(S(C)(=O)=O)ccc43)ncn2)CC1` [Example 1, tert-butyl 4-({6-[5-(methylsulfonyl)indolin-1-yl]pyrimidin-4-yl}oxy)piperidine-1-carboxylate] stands 28%; under `CC(C)OC(=O)N1CCC(Oc2cc(N3CCc4cc(S(C)(=O)=O)ccc43)ncn2)CC1` [Example 2, isopropyl 4-({6-[5-(methylsulfonyl)indolin-1-yl]pyrimidin-4-yl}oxy)piperidine-1-carboxylate], 22%; under `CCS(=O)(=O)c1ccc2c(c1)CCN2c1cc(OC2CCN(C(=O)OCC(C)C)CC2)ncn1` [Example 22, isobutyl 4-({6-[5-(ethylsulfonyl)indolin-1-yl]pyrimidin-4-yl}oxy)piperidine-1-carboxylate], 21%.
Under `CCS(=O)(=O)c1ccc2c(c1)CCN2c1cc(OC2CCN(C(=O)OC(C)C)CC2)ncn1` [Example 31, isopropyl 4-({6-[5-(ethylsulfonyl)indolin-1-yl]pyrimidin-4-yl}oxy)piperidine-1-carboxylate] stands 20%.
For the compound `CS(=O)(=O)c1ccc2c(c1)CCN2c1cc(OC2CCN(C(=O)OCC3CC3)CC2)ncn1` [Example 44, cyclopropylmethyl 4-({6-[5-(methylsulfonyl)indolin-1-yl]pyrimidin-4-yl}oxy)piperidine-1-carboxylate], the inhibition in vivo at 1000 µg/mL came out at 18%.
As for `CCS(=O)(=O)c1ccc2c(c1)CCN2c1cc(OC2CCN(C(=O)OCC(F)F)CC2)ncn1` [Example 60, 2,2-difluoroethyl 4-({6-[5-(ethylsulfonyl)indolin-1-yl]pyrimidin-4-yl}oxy)piperidine-1-carboxylate], the figure is 22%; as for `C[S+]([O-])c1ccc2c(c1)CCN2c1cc(OC2CCN(C(=O)OC(C)(C)C)CC2)ncn1` (stereo not drawn) [Example 80, tert-butyl 4-({6-[5-(methylsulfinyl)indolin-1-yl]pyrimidin-4-yl}oxy)piperidine-1-carboxylate], 19%; as for `COc1c(OC2CCN(C(=O)OC(C)C)CC2)ncnc1N1CCc2cc(S(C)(=O)=O)ccc21` [Example 83, isopropyl 4-({5-methoxy-6-[5-(methylsulfonyl)indolin-1-yl]pyrimidin-4-yl}oxy)piperidine-1-carboxylate], 20%.
With `CC(C)(C)OC(=O)N1CCC(Oc2cc(N3CCc4cc(S(=O)(=O)CCF)ccc43)ncn2)CC1` [Example 85, tert-butyl 4-[(6-{5-[(2-fluoroethyl)sulfonyl]indolin-1-yl}pyrimidin-4-yl)oxy]piperidine-1-carboxylate], the inhibition in vivo at 1000 µg/mL was determined as 27%.
Under `CC(C)CC(=O)N1CCC(Oc2cc(N3CCc4cc(S(C)(=O)=O)ccc43)ncn2)CC1` [Example 92, 1-(6-{[1-(3-methylbutanoyl)piperidin-4-yl]oxy}pyrimidin-4-yl)-5-(methylsulfonyl)indoline] stands 16%; under `CS(=O)(=O)c1ccc2c(c1)CCN2c1cc(OC2CCN(C(=O)Oc3ccc(F)cc3)CC2)ncn1` [Example 93, 4-fluorophenyl 4-({6-[5-(methylsulfonyl)indolin-1-yl]pyrimidin-4-yl}oxy)piperidine-1-carboxylate], 15%; under `CS(=O)(=O)c1ccc2c(c1)CCN2c1cc(OC2CCN(C(=O)OCC(F)(F)F)CC2)ncn1` [Example 104, 2,2,2-trifluoroethyl 4-({6-[5-(methylsulfonyl)indolin-1-yl]pyrimidin-4-yl}oxy)piperidine-1-carboxylate], 10%.
For `C[S+]([O-])c1ccc2c(c1)CCN2c1cc(OC2CCN(C(=O)OCC(F)(F)F)CC2)ncn1` (stereo not drawn) [Example 116, 2,2,2-trifluoroethyl 4-({6-[5-(methylsulfinyl)indolin-1-yl]pyrimidin-4-yl}oxy)piperidine-1-carboxylate], the inhibition in vivo at 1000 µg/mL worked out at 17%.
Under `C[S+]([O-])c1ccc2c(c1)CCN2c1cc(OC2CCN(C(=O)OCC3CC3)CC2)ncn1` (stereo not drawn) [Example 118, cyclopropylmethyl 4-({6-[5-(methylsulfinyl)indolin-1-yl]pyrimidin-4-yl}oxy)piperidine-1-carboxylate] stands 16%.
